Measurements from ChEMBL document CHEMBL3297705, “Discovery of 5,6,7,8-tetrahydropyrido[3,4-d]pyrimidine inhibitors of Erk2” (Bioorg Med Chem Lett, 2014).

Tests used:
[1] = target: T1, Mitogen-activated protein kinase 1 (Homo sapiens, UniProt P28482)
Description: Inhibition of human recombinant N-terminal 6-His-tagged ERK2 expressed in Escherichia coli using S/T17 as substrate after 30 mins by spectrophotometry

[2] = target: T1, Mitogen-activated protein kinase 1; remark: listed apart in the source
Description: Inhibition of ERK2 in human HepG2 cells assessed as P90RSK phosphorylation at Ser380 after 1.5 hrs by fluorescence assay

[3] = target: Cyclin-dependent kinase 2 (Homo sapiens, UniProt P24941)
Description: Inhibition of Cdk2 (unknown origin)

[4] = Plasma protein binding in human; assay type: ADME, cell-free; details: read-out: PPB (converted)

T1 sequence (P28482 whole entry): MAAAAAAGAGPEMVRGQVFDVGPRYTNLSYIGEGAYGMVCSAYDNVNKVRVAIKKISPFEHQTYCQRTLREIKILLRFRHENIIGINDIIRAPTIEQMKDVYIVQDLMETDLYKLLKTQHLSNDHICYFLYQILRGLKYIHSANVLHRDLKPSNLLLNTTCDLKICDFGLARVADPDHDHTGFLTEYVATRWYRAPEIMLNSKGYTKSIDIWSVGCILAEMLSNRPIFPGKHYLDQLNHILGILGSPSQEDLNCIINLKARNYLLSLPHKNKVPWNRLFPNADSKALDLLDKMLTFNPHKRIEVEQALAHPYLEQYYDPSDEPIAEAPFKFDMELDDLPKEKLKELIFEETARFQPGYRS

Row | IC50 [1] [µM] | IC50 [2] [µM] | IC50 [3] [µM] | fraction unbound [4] | SMILES
1 | 0.081 | 1.63 |  |  | CC(C)Nc1ncc2c(n1)CN(C(=O)NCc1ccc(Cl)c(F)c1)CC2
2 | 0.066 | 1.22 |  |  | CC(C)Nc1ncc2c(n1)CN(C(=O)NCc1ccc(F)c(Cl)c1)CC2
3 | 0.004 | 0.16 |  |  | CC(C)Nc1ncc2c(n1)CN(C(=O)N[C@H](CO)c1ccc(F)c(Cl)c1)CC2
4 | 0.003 | 0.088 |  |  | CC(C)Nc1ncc2c(n1)CN(C(=O)N[C@@H](c1ccc(F)c(Cl)c1)[C@@H](C)O)CC2
5 | 0.006 | 0.2 |  |  | CC(C)Nc1ncc2c(n1)CN(C(=O)N[C@@H](c1ccc(F)c(Cl)c1)[C@H](C)O)CC2
6 | 0.002 | 0.108 |  |  | CC[C@H](O)[C@@H](NC(=O)N1CCc2cnc(NC(C)C)nc2C1)c1ccc(F)c(Cl)c1
7 | 0.011 | 0.368 |  |  | COC[C@@H](NC(=O)N1CCc2cnc(NC(C)C)nc2C1)c1ccc(F)c(Cl)c1
8 | 0.122 | 2.11 |  |  | COCCOC[C@@H](NC(=O)N1CCc2cnc(NC(C)C)nc2C1)c1ccc(F)c(Cl)c1
9 | 0.002 | 0.356 |  |  | CC(C)Nc1ncc2c(n1)CN(C(=O)N[C@H](CN)c1ccc(F)c(Cl)c1)CC2
10 | 0.004 | 0.144 |  |  | CNC[C@@H](NC(=O)N1CCc2cnc(NC(C)C)nc2C1)c1ccc(F)c(Cl)c1
11 | 0.008 | 2.76 |  |  | CC(C)Nc1ncc2c(n1)CN(C(=O)N[C@H](CNCCO)c1ccc(F)c(Cl)c1)CC2
12 | 0.007 | 0.917 |  |  | CC(C)Nc1ncc2c(n1)CN(C(=O)N[C@H](CNS(C)(=O)=O)c1ccc(F)c(Cl)c1)CC2
13 | 0.002 | 0.007 | 0.002 |  | C[C@@H](NC(=O)N1CCc2cnc(N[C@H]3CCO[C@@H](CO)C3)nc2C1)c1ccc(Cl)c(Cl)c1
14 | 0.043 | 2.26 |  |  | CNc1ncc2c(n1)CN(C(=O)N[C@H](CO)c1ccc(F)c(Cl)c1)CC2
15 | 0.02 | 0.753 |  |  | CCNc1ncc2c(n1)CN(C(=O)N[C@H](CO)c1ccc(F)c(Cl)c1)CC2
16 | 0.009 | 2.45 |  |  | O=C(N[C@H](CO)c1ccc(F)c(Cl)c1)N1CCc2cnc(NCCO)nc2C1
17 | 0.004 | 0.33 |  |  | O=C(N[C@H](CO)c1ccc(F)c(Cl)c1)N1CCc2cnc(NC3CCCC3)nc2C1
18 | 0.001 | 0.021 | 0.104 | 0.03 | C[C@@H](CO)Nc1ncc2c(n1)CN(C(=O)N[C@H](C)c1ccc(Cl)c(Cl)c1)CC2
19 | 0.003 | 0.051 | 0.013 | 0.226 | CC[C@@H](NC(=O)N1CCc2cnc(N[C@@H](C)CO)nc2C1)c1ccc(F)c(F)c1
20 | 0.002 | 0.023 | 0.012 | 0.025 | CC[C@@H](NC(=O)N1CCc2cnc(N[C@@H](C)CO)nc2C1)c1ccc(Cl)c(Cl)c1
21 | 0.003 | 0.11 | 0.821 | 0.013 | C[C@@H](CO)Nc1ncc2c(n1)CN(C(=O)N[C@H](C)c1ccc(C(F)(F)F)c(F)c1)CC2
22 | 0.002 | 0.014 | 0.071 | 0.081 | CC[C@@H](NC(=O)N1CCc2cnc(N[C@@H](C)CO)nc2C1)c1ccc(OC)c(Cl)c1
